Test results from patent publication US20240109900A1, “AZABICYCLIC SHP2 INHIBITORS” (IRBM S.P.A., priority 2021, published 2024).
Read-outs that look alike come from different tables or passages of the source.

How the values were obtained:
[1] = tested on: ERK phosphorylation in KYSE-520 cells; assay: Phospho-ERK cellular assay; format: cell-based; settings: KYSE-520 cells, 2 h at 37° C., phospho-ERK1/2 (Thr202/Tyr204) TR-FRET, read-out: PERK IC50
How it was run: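 TR-FRET read-out of ERK1/2 Thr202/Tyr204 phosphorylation was taken after overnight antibody incubation at room temperature. Before that, KYSE-520 cells were treated 2 h at 37 °C with compound dilutions and lysed 30 min. Percent inhibition relative to vehicle and cell-free wells was fitted four-parametrically to give IC50.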

[2] = biological target: SHP-2 enzyme (Met1-Leu525) (Homo sapiens (Human), UniProt Q06124); assay: SHP2 inhibition enzymatic assay; format: biochemical; settings: 0.5 nM SHP-2 activated by 500 nM IRS1 peptide, 75 μM DiFMUP substrate; read-out: SHP2wt-IC50
Chain of SHP-2 enzyme (Met1-Leu525) (Q06124 1-525): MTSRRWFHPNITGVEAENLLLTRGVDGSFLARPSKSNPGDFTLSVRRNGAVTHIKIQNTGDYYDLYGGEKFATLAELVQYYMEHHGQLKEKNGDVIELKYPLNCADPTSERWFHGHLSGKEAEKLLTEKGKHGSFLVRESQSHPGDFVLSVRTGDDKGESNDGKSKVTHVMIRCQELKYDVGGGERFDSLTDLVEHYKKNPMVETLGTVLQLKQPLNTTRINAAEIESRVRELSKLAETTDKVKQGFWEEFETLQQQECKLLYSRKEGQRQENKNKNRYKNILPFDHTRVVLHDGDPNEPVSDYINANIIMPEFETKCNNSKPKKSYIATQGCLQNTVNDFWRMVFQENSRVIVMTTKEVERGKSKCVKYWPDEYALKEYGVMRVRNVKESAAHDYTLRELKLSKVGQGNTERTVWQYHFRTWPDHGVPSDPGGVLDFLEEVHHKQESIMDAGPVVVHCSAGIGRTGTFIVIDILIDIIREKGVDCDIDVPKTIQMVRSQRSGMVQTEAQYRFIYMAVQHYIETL
How it was run: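 Compounds were preincubated 30 min with 0.5 nM SHP-2 (Met1-Leu525) plus 500 nM IRS1 activating peptide (pH 7.2 HEPES, 5 mM DTT), then 75 μM DiFMUP substrate reacted 30 min at room temperature. After bpV quench, DiFMUP fluorescence gave % inhibition; four-parameter logistic fit yielded IC50.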

IC50 ([1]; Homo sapiens, KYSE-520, 2 h) [nM] | IC50 [2] [nM] | IC50 [1] [nM] | Structure (SMILES)
< 1000 | < 500 |  | Cc1cc(C2(CN)C3CCN(c4cnc5c(-c6ccc(Cl)c7ncccc67)n[nH]c5n4)CC32)no1 (stereo not drawn) [Example 33, (3-(3-(8-chloroquinolin-5-yl)-1H-pyrazolo[3,4-b]pyrazin-6-yl)-7-(5-methylisoxazol-3-yl)-3-azabicyclo[4.1.0]heptan-7-yl)methanamine]
< 1000 | < 500 |  | NC[C@]1(c2ccccc2)[C@@H]2CN(c3cnc4c(-c5ccc6nccnc6c5Cl)n[nH]c4n3)C[C@@H]21 [Example 456, ((1R,5S,6s)-3-(3-(5-chloroquinoxalin-6-yl)-1H-pyrazolo[3,4-b]pyrazin-6-yl)-6-phenyl-3-azabicyclo[3.1.0]hexan-6-yl)methanamine]
< 1000 | < 500 |  | NC[C@]1(c2ccccc2F)[C@@H]2CCN(c3cnc4c(-c5ccc6c(=O)n(CCO)ccc6c5F)n[nH]c4n3)C[C@@H]21 [Example 351, 6-(6-((1S,6R,7R)-7-(aminomethyl)-7-(2-fluorophenyl)-3-azabicyclo[4.1.0]heptan-3-yl)-1H-pyrazolo[3,4-b]pyrazin-3-yl)-5-fluoro-2-(2-hydroxyethyl)isoquinolin-1(2H)-one]
< 1000 | < 500 |  | CN1Cc2c(ccc(-c3n[nH]c4nc(N5CC[C@@H]6[C@H](C5)[C@@]6(CN)c5ccccc5F)cnc34)c2Cl)C1=O [Example 350, 5-(6-((1S,6R,7R)-7-(aminomethyl)-7-(2-fluorophenyl)-3-azabicyclo[4.1.0]heptan-3-yl)-1H-pyrazolo[3,4-b]pyrazin-3-yl)-4-chloro-2-methylisoindolin-1-one]
< 1000 | < 500 |  | Cc1csc([C@@]2(CN)[C@@H]3CCN(c4cnc5c(-c6ccn7nccc7c6Cl)n[nH]c5n4)C[C@@H]32)n1 [Example 439, ((1S,6R,7S)-3-(3-(4-chloropyrazolo[1,5-a]pyridin-5-yl)-1H-pyrazolo[3,4-b]pyrazin-6-yl)-7-(4-methylthiazol-2-yl)-3-azabicyclo[4.1.0]heptan-7-yl)methanamine]
< 1000 | < 500 |  | NC[C@]1(c2cc(F)ccc2F)[C@@H]2CCN(c3cnc(Sc4ccnc(-n5cccn5)c4Cl)cn3)C[C@@H]21 [Example 402, ((1S,6R,7R)-3-(5-((3-chloro-2-(1H-pyrazol-1-yl)pyridin-4-yl)thio)pyrazin-2-yl)-7-(2,5-difluorophenyl)-3-azabicyclo[4.1.0]heptan-7-yl)methanamine]
< 1000 | < 500 |  | Cc1csc(C2(CN)C3CCN(c4cnc5c(-c6ccc(F)c7ncccc67)n[nH]c5n4)CC32)n1 (stereo not drawn) [Example 92, (3-(3-(8-fluoroquinolin-5-yl)-1H-pyrazolo[3,4-b]pyrazin-6-yl)-7-(4-methylthiazol-2-yl)-3-azabicyclo[4.1.0]heptan-7-yl)methanamine]
< 1000 | < 500 |  | NC[C@]1(c2cc(F)ccc2F)[C@@H]2CCN(c3cnc(Sc4ccnc(C5CC5)c4Cl)c(N)n3)C[C@@H]21 [Example 430, 6-((1S,6R,7R)-7-(aminomethyl)-7-(2,5-difluorophenyl)-3-azabicyclo[4.1.0]heptan-3-yl)-3-((3-chloro-2-cyclopropylpyridin-4-yl)thio)pyrazin-2-amine]
< 1000 | < 500 |  | Cc1c(-c2n[nH]c3nc(N4CC[C@@H]5[C@H](C4)[C@@]5(CN)c4ccccc4F)cnc23)ccc2c1nnn2C [Example 204, ((1S,6R,7R)-3-(3-(1,4-dimethyl-1H-benzo[d][1,2,3]triazol-5-yl)-1H-pyrazolo[3,4-b]pyrazin-6-yl)-7-(2-fluorophenyl)-3-azabicyclo[4.1.0]heptan-7-yl)methanamine]
< 1000 | < 500 |  | NC[C@]1(c2ccccc2F)[C@@H]2CCN(c3cnc4c(-c5cccn6nccc56)n[nH]c4n3)C[C@@H]21 [Example 131, ((1S,6R,7R)-7-(2-fluorophenyl)-3-(3-(pyrazolo[1,5-a]pyridin-4-yl)-1H-pyrazolo[3,4-b]pyrazin-6-yl)-3-azabicyclo[4.1.0]heptan-7-yl)methanamine]
< 1000 | < 500 |  | Cc1c(-c2c[nH]c3nc(N4CC[C@@H]5[C@H](C4)[C@@]5(CN)c4ccccc4F)cnc23)ccc2nn(C)cc12 [Example 157, ((1S,6R,7R)-3-(7-(2,4-dimethyl-2H-indazol-5-yl)-5H-pyrrolo[2,3-b]pyrazin-3-yl)-7-(2-fluorophenyl)-3-azabicyclo[4.1.0]heptan-7-yl)methanamine]
< 1000 | < 500 |  | Cn1cc2c(Cl)c(-c3n[nH]c4nc(N5CCC6C(C5)C6(CN)c5ccc(F)cn5)cnc34)ccc2n1 (stereo not drawn) [Example 50, (3-(3-(4-chloro-2-methyl-2H-indazol-5-yl)-1H-pyrazolo[3,4-b]pyrazin-6-yl)-7-(5-fluoropyridin-2-yl)-3-azabicyclo[4.1.0]heptan-7-yl)methanamine]
< 1000 | < 500 |  | COc1ccc(-c2n[nH]c3nc(N4CCC5C(C4)C5(CN)c4cc(C)on4)cnc23)c2cccnc12 (stereo not drawn) [Example 22, (3-(3-(8-methoxyquinolin-5-yl)-1H-pyrazolo[3,4-b]pyrazin-6-yl)-7-(5-methylisoxazol-3-yl)-3-azabicyclo[4.1.0]heptan-7-yl)methanamine]
< 1000 | < 500 |  | COc1ccc2c(-c3n[nH]c4nc(N5CC[C@@H]6[C@H](C5)[C@@]6(CN)c5ccccc5F)cnc34)ccnc2c1 [Example 191, ((1S,6R,7R)-7-(2-fluorophenyl)-3-(3-(7-methoxyquinolin-4-yl)-1H-pyrazolo[3,4-b]pyrazin-6-yl)-3-azabicyclo[4.1.0]heptan-7-yl)methanamine]
< 1000 | < 500 |  | Cc1cc([C@@]2(CN)[C@@H]3CCN(c4cnc5c(-c6ccc7nc(C(F)(F)F)ccc7c6)n[nH]c5n4)C[C@@H]32)no1 [Example 150, ((1S,6R,7S)-7-(5-methylisoxazol-3-yl)-3-(3-(2-(trifluoromethyl)quinolin-6-yl)-1H-pyrazolo[3,4-b]pyrazin-6-yl)-3-azabicyclo[4.1.0]heptan-7-yl)methanamine]
< 1000 | < 500 |  | NC[C@]1(c2ccccc2F)[C@@H]2CCN(c3cnc4c(-c5ccc(C(N)=O)c(Cl)c5Cl)n[nH]c4n3)C[C@@H]21 [Example 241, 4-(6-((1S,6R,7R)-7-(aminomethyl)-7-(2-fluorophenyl)-3-azabicyclo[4.1.0]heptan-3-yl)-1H-pyrazolo[3,4-b]pyrazin-3-yl)-2,3-dichlorobenzamide]
< 1000 | < 500 |  | COc1cc(-c2ccc3nc(N4CC[C@@H]5[C@H](C4)[C@@]5(CN)c4ccccc4F)cnc3n2)cc2cccnc12 [Example 435, ((1S,6R,7R)-7-(2-fluorophenyl)-3-(6-(8-methoxyquinolin-6-yl)pyrido[2,3-b]pyrazin-2-yl)-3-azabicyclo[4.1.0]heptan-7-yl)methanamine]
< 1000 | < 500 |  | Cc1cc(C2(CN)C3CCN(c4cnc5c(-c6ccnc7ccsc67)n[nH]c5n4)CC32)no1 (stereo not drawn) [Example 18, (7-(5-methylisoxazol-3-yl)-3-(3-(thieno[3,2-b]pyridin-7-yl)-1H-pyrazolo[3,4-b]pyrazin-6-yl)-3-azabicyclo[4.1.0]heptan-7-yl)methanamine]
< 1000 | < 500 |  | NC[C@]1(c2ccccc2F)[C@@H]2CCN(c3cnc4c(-c5ccnc6c(F)cccc56)n[nH]c4n3)C[C@@H]21 [Example 132, ((1S,6R,7R)-7-(2-fluorophenyl)-3-(3-(8-fluoroquinolin-4-yl)-1H-pyrazolo[3,4-b]pyrazin-6-yl)-3-azabicyclo[4.1.0]heptan-7-yl)methanamine]
< 1000 | < 500 |  | Cc1csc(C2(CN)C3CCN(c4cnc5c(-c6cccc(Cl)c6)n[nH]c5n4)CC32)n1 (stereo not drawn) [Example 85, (3-(3-(3-chlorophenyl)-1H-pyrazolo[3,4-b]pyrazin-6-yl)-7-(4-methylthiazol-2-yl)-3-azabicyclo[4.1.0]heptan-7-yl)methanamine]
> 5000 | < 500 |  | CN(C)C(=O)C1(CN)C2CCN(c3cnc4c(-c5ccc6nn(C)cc6c5Cl)n[nH]c4n3)CC21 (stereo not drawn) [Example 286, 7-(aminomethyl)-3-(3-(4-chloro-2-methyl-2H-indazol-5-yl)-1H-pyrazolo[3,4-b]pyrazin-6-yl)-N,N-dimethyl-3-azabicyclo[4.1.0]heptane-7-carboxamide]
 | < 500 | < 1000 | Cc1csc([C@@]2(CN)[C@@H]3CN(c4cnc5c(-c6ccc7nc(C)sc7c6Cl)n[nH]c5n4)C[C@@H]32)n1 [Example 461]
> 5000 | < 500 |  | NC[C@]1(c2ccccc2F)[C@@H]2CCN(c3cnc4c(-c5cnn(-c6ccccc6)c5)n[nH]c4n3)C[C@@H]21 [Example 390, ((1S,6R,7R)-7-(2-fluorophenyl)-3-(3-(1-phenyl-1H-pyrazol-4-yl)-1H-pyrazolo[3,4-b]pyrazin-6-yl)-3-azabicyclo[4.1.0]heptan-7-yl)methanamine]
< 1000 | < 500 |  | Cn1ccc2c(F)c(-c3n[nH]c4nc(N5CC[C@@H]6[C@H](C5)[C@@]6(CN)c5ccccc5F)cnc34)ccc2c1=O [Example 316, 6-(6-((1S,6R,7R)-7-(aminomethyl)-7-(2-fluorophenyl)-3-azabicyclo[4.1.0]heptan-3-yl)-1H-pyrazolo[3,4-b]pyrazin-3-yl)-5-fluoro-2-methylisoquinolin-1(2H)-one]
